# Test results reported in patent publication US12357679B2, “Albumin-based non-covalent complexes and methods of use thereof” (Spectral Platforms, Inc., priority 2015, dated 2025).
# Key:
# [1] = system: Candida albicans (ATCC 90028); settings: C. albicans; cited from earlier work
# [2] = system: C. glabrata (ATCC 2001); settings: cited from earlier work
# [3] = system: most gram positive organisms; settings: cited from earlier work
# [4] = ingestion of a 200 mg tablet, microcrystalline suspension in oil-wax base; cited from earlier work
# [5] = cited from earlier work
# [6] = system: S. aureus; test: Rapid MIC prediction with lycopene/HSA assay (UV-Vis absorbance after 30 min incubation); type: cell-based; settings: Staphylococcus aureus, 0.5 h
# Method: (§1) The present lycopene/HSA complexes were used to characterize the minimum inhibitory concentration (MIC) of antimicrobial compounds. A lycopene/HSA complex, prepared as described herein, was mixed with a series of samples that all had the same initial amount of S. aureus (200 CFU/mL of PHS), and which was incubated with a varying amount of vancomycin for 30 minutes. […] Upon the addition of the lycopene/HSA assay, aggregation of the lycopene/HSA increased in a manner that scales with S. aureus concentration (and thus on the vancomycin concentration). These changes were characterized via the changes in the UV-Vis spectrum, depicted at the bottom in FIG. 23. The chart on the top in FIG. 23 depicts the absorbance at 600 nm for these samples after another 18 hours of incubation. This absorbance was dominated by the pathogen concentration after 18 hours of growth.
# (§2) FIG. 23. Rapid prediction of the MIC of S. aureus at 200 CFU/mL. […] Lycopene (1.125 mM), fucoxanthin (0.375 mM), additional vancomycin (so as to maintain the same concentration of vancomycin) and additional 3440 μl PBS (to bring the total volume to 6 ml) was added and the UV-Vis absorbance was measured. […] The chart on the top depicts the absorbance at 600 nm after 18 hour incubation at 37° C. […]
# [7] = system: S. aureus; test: MIC by absorbance at 600 nm after 18 hour incubation; type: cell-based; settings: Staphylococcus aureus; absorbance at 600 nm after 18 hour incubation at 37° C.; read-out: actual MIC (break point)
# Method: as §1, §2
smiles,measurement,setting,value
C[C@@H]1[C@H](O)[C@@H](C)/C=C/C=C/C=C/C=C/C=C/C=C/C=C/[C@H](O[C@@H]2O[C@H](C)[C@@H](O)[C@H](N)[C@@H]2O)C[C@@H]2O[C@](O)(C[C@@H](O)C[C@@H](O)[C@H](O)CC[C@@H](O)C[C@@H](O)CC(=O)O[C@H]1C)C[C@H](O)[C@H]2C(=O)O [Amphotericin B],previously reported minimum inhibitory concentration MIC,[1],about 0.5 μg/mL
same,previously reported minimum inhibitory concentration MIC,[2],about 0.5 μg/mL
CC(C)/N=c1\cc2n(-c3ccc(Cl)cc3)c3ccccc3nc-2cc1Nc1ccc(Cl)cc1 [Clofazimine],MIC,[3],about 0.4 μg/mL
same,peak plasma concentration,[4],0.41 µg/mL
same,water solubility,[5],not water soluble
CN[C@H](CC(C)C)C(=O)N[C@H]1C(=O)N[C@@H](CC(N)=O)C(=O)N[C@H]2C(=O)N[C@H]3C(=O)N[C@H](C(=O)N[C@H](C(=O)O)c4cc(O)cc(O)c4-c4cc3ccc4O)[C@H](O)c3ccc(c(Cl)c3)Oc3cc2cc(c3O[C@@H]2O[C@H](CO)[C@@H](O)[C@H](O)[C@H]2O[C@H]2C[C@](C)(N)[C@H](O)[C@H](C)O2)Oc2ccc(cc2Cl)[C@H]1O [vancomycin],MIC,[6]; read-out: predicted MIC,~0.6 µg/mL
same,MIC,[6]; read-out: predicted MIC (break point),200 µg/mL
same,MIC,[7],0.2 µg/mL
